The record followed here is the SangsterLogP compilation.

Residues, ends and D or L forms follow the SMILES beside them. *: point of attachment. Boc = CC(C)(C)OC(=O)*

In general, logP refers to a log measure of how a compound divides between an organic and an aqueous phase. A lower logP goes with a more hydrophilic compound. On to `FC(F)(F)c1ccc(C(F)(F)F)cc1`, for which the lipophilicity (logP) turned out to be 3.83.
`C1CCCCCC1` showed a logP of 4.
Broadly, the logD is lipophilicity at a set pH, counting ionised and neutral species. Low readings indicate lower lipophilicity, high ones higher lipophilicity. Compound `CC1(C)COC(Cn2cncn2)(c2ccc(-n3ccnc3)cc2Cl)OC1` came in with a log distribution coefficient (logD) (pH 7.0) of 2.26.
Regarding `COC(=S)NCCn1c([N+](=O)[O-])cnc1C`, the pH-dependent lipophilicity (logD) (pH 7.4) came out at 1.09.
`CC(C)I` displayed a logP of 2.89.
Take `COc1c(C(C)C)cc(Cc2cnc(N)nc2N)cc1C(C)C`: the logD (pH 13.0) was 3.47.
As for `Cn1c(N)nc2ccc(C#N)cc21`, the logP is 1.29.
In the case of `CC(C)N(C)/N=N/c1ccc(C(N)=O)cc1`, where the note is “pH 6.3”, the logD was 2.02.
Compound `NS(=O)(=O)Cc1ccccc1` came in with a logP of 0.13.
On to `O=C1C=C(NCCO)C(=O)c2ccccc21`, for which the logP was determined as 1.23.
For the compound `O=C1c2ccccc2C(=O)N1c1ccccc1`, the logP came out at 2.4.
Regarding `C1=C(c2ccccc2)CCCC1`, the lipophilicity (logP) is 4.53.
Regarding `COC(=O)C(F)(F)F`, the logP was found to be 0.6.
As to `O=C(/C=C/c1ccc([N+](=O)[O-])o1)N/N=C/c1ccc([N+](=O)[O-])o1`, the log distribution coefficient (logD) (pH 7.4) was 2.22.
Compound `CC(C)(C)c1cccc(C(C)(C)C)n1` registered a logP of 4.14.
Consider `COc1c(C)ccc(Cc2cnc(N)nc2N)c1C(C)(C)C`, for which the pH-dependent lipophilicity (logD) (pH 13.0) is 3.05.
The compound `OCCCF` came in with a logP of -0.28.
In turn, `[O-][n+]1ccccc1` came in with a logP of -1.2.
For the compound `c1ccc(-c2cc3ccccc3[nH]2)nc1`, the logP is 3.33.
Same read-out and setting: the same measure for `CN(C)O`: -1.15; for `Cc1cccc(OCC(O)CNC(C)C)c1` (stereo unspecified): 2.02.
`Cc1[nH]ccc2c1[nH]c1cc(=O)ccc12` displayed a logD (pH 7.4) of 2.18.
`C#CCN` had a logD (pH 13.0) of -0.43.
Under “pH 7.4”, `Cn1c(N)nc2ncc(-c3ccccc3)cc21` gave a logD of 2.23.
In the case of `CC(C)(C)NCCO`, the logD (pH 13.0) turned out to be 0.41.
Same read-out and setting: the same measure for `Cc1cc(C)c(N(C)C)c(C)c1`: 4.44.
Under “pH 11.0”, `C[C@@H]([C@H](O)c1ccccc1)N(C)C` showed a logD of 1.7.
In the case of `COCCOc1ccccc1OCCOC`, the logP was 1.12.
`COC(=O)Nc1c(C(C)C)cccc1C(C)C` had a logP of 2.2.
`CCC(C(N)=O)(C(N)=O)c1ccccc1` came in with a logP of 0.13.
`CC(C)(C)C(=O)C(C)(C)C` registered a logP of 3.
The same measure, in the same setting: the result for `CCC(C)OC(C)=O` (stereo unspecified) reads 1.72.
Regarding `COc1ccc(Oc2cnc(N)nc2N)c(OC)c1OC`, the logD (pH 13.0) worked out at 0.9.
In turn, `O=C(Cn1ccnc1[N+](=O)[O-])NCc1ccccc1` displayed a log distribution coefficient (logD) (pH 7.4) of 0.85.
Compound `O=[N+]([O-])c1ccc(/C=N/O)cc1` displayed a lipophilicity (logP) of 1.95.
`CC(=O)C(C)C` came in with a logP of 0.84.
For the compound `CC(C)(C)C(O)(CCc1ccc(Cl)cc1)Cn1cncn1` (stereo unspecified), the logP amounted to 3.7.
The same measure, in the same setting: the result for `COC(=O)CCCC(=O)OC` reads 0.62.
Same read-out and setting: the result for `CCCOC` reads 1.21.
`CC(C)Cn1c(=O)n(C)c(=O)c2[nH]c(CCN3CCN(C(c4ccc(F)cc4)c4ccc(F)cc4)CC3)nc21`: under “pH 7.4”, the log distribution coefficient (logD) amounted to 4.16.
`CNC(=O)c1ccoc1`: the lipophilicity (logP) came out at 0.34.
The same measure, in the same setting: the same measure for `CCCCOC`: 1.66.
As to `N#CCC(=O)O`, for the setting “pH 1.0”, the logD was -0.76.
Consider `CCc1cccc2cccnc12`, for which the logD (pH 7.4) stood at 2.93.
Turning to `CC(C)(C)N(CC(O)COc1ccccc1)CC(O)COc1ccccc1` (stereo unspecified), where the note is “pH 13.0”, the logD worked out at 3.99.
In turn, `O/N=C\c1ccc(F)cc1` yielded a logP of 2.03.
On the same count and under the same terms, the same measure for `CC(=O)Oc1ccc(N)cc1`: 0.45; for `CC(C)=NOCCOC(=O)[C@@H](C)Oc1ccc(Oc2cnc3cc(Cl)ccc3n2)cc1`: 4.6.
`CN1CCCC1` yielded a logP of 0.92.
In turn, `Fc1cccc(F)n1` yielded a logP of 1.17.
On the same count and under the same terms, the same measure for `Cn1cccn1`: 0.23.
Same read-out and setting: the result for `CCON=C(OC(=O)c1ccccc1)c1c(OC)ccc(Cl)c1OC` reads 2.4; that for `CS(=O)(=O)CC#N`, -1.42.
The compound `CC(=O)c1ccc(N2CCCCC2)cc1` had a logD (pH 13.0) of 3.13.
`N#Cc1cccc(C=O)c1` gave a logP of 1.18.
As for `O=C(O)CCCl`, the pH-dependent lipophilicity (logD) (pH 1.0) was found to be 0.41.
Consider `CCOC(=O)C(=O)Nc1ccccc1`, for which the logP came out at 1.48.
In turn, `CCCN(CCC)c1c([N+](=O)[O-])cc(S(N)(=O)=O)cc1[N+](=O)[O-]` gave a logP of 3.73.
Still for that read-out and setting: the same measure for `Clc1cc(Cl)c2cc(Cl)ccc2c1`: 5.35.
The compound `CCOc1cccc(Cl)n1` had a logP of 2.55.
In the case of `Cc1cccc(OCc2ccccc2)n1`, the logP was 3.43.
`FC(F)(F)c1cccc(C(F)(F)F)c1` returned a logP of 3.83.
Same read-out and setting: the same measure for `CCOC(=O)C(F)F`: 0.87; for `CC(Cl)[N+](=O)[O-]` (stereo unspecified): 1.1; for `Cc1ccc(C)[nH]1`: 1.47.
The compound `COc1cccc(OC)c1Cc1cnc(N)nc1N` displayed a logD (pH 13.0) of 1.7.
Regarding `COP(=S)(OC)SCC(=O)N(C)C=O`, the logP is 1.48.
Regarding `Cc1ccc(Cc2cnc(N)nc2N)c(C)c1N`, the logD (pH 13.0) came to 1.12.
`COC(=O)CC#N` returned a logP of -0.47.
Turning to `O=[N+]([O-])c1ccc(NN=C(C(F)(F)F)C(F)(F)F)c([N+](=O)[O-])c1`, under “pH 4.0”, the logD amounted to 3.8.
The compound `O=C1C(Cl)C(CCl)CN1c1cccc(C(F)(F)F)c1` (stereo unspecified) returned a logP of 3.36.
The same measure, in the same setting: the same measure for `NC(=O)CCNC(=O)C(F)(F)Cn1cncc1[N+](=O)[O-]`: -0.95; for `C/C=C\C=C\C`: 2.8.
Still for that read-out and setting: the same measure for `Cc1ccc(N(SC(F)(Cl)Cl)S(=O)(=O)N(C)C)cc1`: 3.95; for `CC(=O)Nc1nccs1`: 0.76.
Compound `CN(C(=S)c1ccccc1)c1ccccc1` returned a logP of 3.12.
Same read-out and setting: the result for `Cc1ccccc1CO` reads 1.58.
`CN(C1CCCCC1)C1CCCCC1` showed a logD (pH 13.0) of 3.71.
With `COC=O`, the logP worked out at 0.03.
With `Cn1c(=O)sc2ccccc21`, the logP stood at 1.98.
In turn, `C/C=C/C(C)=O` registered a logP of 0.52.
The same measure, in the same setting: the same measure for `O=C(OCCCc1cnc[nH]1)c1ccccc1`: 2.64; for `Oc1ccc(CCNCCCCCCNCCc2ccccc2)cc1O`: 1.88.
For `c1ccc(COc2cccc3cccnc23)cc1`, the logD (pH 7.4) was 3.51.
Compound `O=Cc1ccccn1` displayed a logP of 0.44.
Still for that read-out and setting: the same measure for `CN(C)N=Nc1cccc2oc3ccccc3c12`: 4.55.
Same read-out and setting: the same measure for `CN(C)C(CSS(=O)(=O)c1ccccc1)CSS(=O)(=O)c1ccccc1`: 3.36.
Consider `Cc1ccc(C=Cc2ncc([N+](=O)[O-])n2C)cc1`, for which the logD (pH 7.4) was 1.64.
In the case of `O=C1CCc2cccc3c2N1CC3`, the logP was found to be 1.6.
Regarding `c1ccc(N2CCCC2)cc1`, the logP was determined as 3.56.
In turn, `O=C(NCCO)C(F)(F)Cn1cnc([N+](=O)[O-])n1` returned a logP of -0.77.
As to `CC1(O)CCCCC1`, the logP turned out to be 1.33.
On the same count and under the same terms, the result for `Nc1ccc([C@@H](O)[C@@H](CO)NC(=O)C(Cl)Cl)cc1` reads -0.29.
On to `CC(=O)c1cccc(S(N)(=O)=O)c1`, for which the logD (pH 2.1) was determined as 0.25.
For the compound `C=CCOC(C)=O`, the logP came out at 0.97.
As to `CCCCCn1cnc2c(NC(C)=O)ncnc21`, the logP came to 0.98.
The same measure, in the same setting: the result for `O=[N+]([O-])c1cc2[nH]c(C(F)(F)F)nc2cc1Cl` reads 3.21.
In the case of `CSc1ncc([N+](=O)[O-])n1C`, the pH-dependent lipophilicity (logD) (pH 7.4) came to 0.94.
Regarding `CC(C)(C)c1ccc(N)cc1`, the log distribution coefficient (logD) (pH 7.4) amounted to 2.7.
Turning to `CC(C)(C)NCC(O)COCC=Cc1ccccc1` (stereo unspecified), the logP stood at 2.69.
For the setting “pH 4.0”, `O=[N+]([O-])c1ccc(NN=C(C(F)(F)F)C(F)(F)F)c(C(F)(F)F)c1` displayed a logD of 4.6.
The compound `NC(=O)C(Cl)Cl` registered a logP of 0.19.
Regarding `CC(=O)NCCCOc1cccc(CN2CCCCC2)c1`, the logD (pH 11.3) amounted to 2.15.
For the compound `FC(F)(F)c1ccccc1Cl`, the lipophilicity (logP) stood at 3.53.
Same read-out and setting: the result for `COC(=O)c1ccccc1N` reads 1.88; that for `O=[N+]([O-])c1ccccc1CO`, 1.24; that for `O=C(N/N=C/c1ccco1)Nc1ccccc1`, 2.52.
In turn, `Cc1cc(Cc2cnc(N)nc2N)cc(C(C)C)c1N` came in with a logD (pH 13.0) of 1.77.
`c1ccc(CCCc2ccccc2)cc1` gave a logP of 3.43.
Where the note is “pH 1.0”, `CCOc1ccc(C(=O)O)cc1OCC` had a logD of 2.37.
As for `c1ccc(P(c2ccccc2)c2ccccc2)cc1`, the logP was determined as 5.69.
Same read-out and setting: the result for `CC1CN1C1=C(F)C(=O)C(N2CC2C)=C(F)C1=O` (stereo unspecified) reads 1.61; that for `Cc1cccc(CC(=O)O)c1Nc1c(Cl)cccc1Cl`, 4.93.
`CNC(=O)c1cccc2cccnc12`: the log distribution coefficient (logD) (pH 7.4) worked out at 1.87.
In turn, `c1ccc(OP2OCCO2)cc1` displayed a logP of 1.42.
For `Cn1c(N)nc2c3nccnc3ccc21`, for the setting “pH 7.4”, the logD came to 1.01.
Where the note is “pH 13.0”, `N#CCN` displayed a logD of -1.37.
Regarding `CCCNC`, for the setting “pH 13.0”, the logD stood at 0.84.
Regarding `Nc1ccc2nc3ccccn3c2n1`, the logD (pH 7.4) amounted to 1.38.
On to `OCCCCl`, for which the log partition coefficient (logP) came to 0.5.
On the same count and under the same terms, the result for `CC(=O)OC(C)(C)C` reads 1.76.
For `NC(=S)N1CCCCC1`, the logP came out at 0.73.
As to `COc1cccc(N(C)C(=S)Oc2cccc(C(C)(C)C)c2)n1`, the lipophilicity (logP) was 5.18.
`CCC(C)Cl` (stereo unspecified) came in with a logP of 2.33.
In turn, `N#Cc1ccccc1N` showed a logP of 1.4.
In the case of `COC(=O)NCCn1c([N+](=O)[O-])cnc1C`, the logD (pH 7.4) was 0.02.
Compound `Clc1ccc(C2(Cn3cncn3)OCC3(CCC4OC4C3)CO2)c(Cl)c1` (stereo unspecified) came in with a logD (pH 7.0) of 1.87.
`O=C(O)Cc1ccccc1Nc1c(F)cccc1F` returned a logP of 3.57.
In turn, `c1n[nH]c2c1CC[C@H]1c3[nH]ncc3CC[C@H]21` came in with a logD (pH 5.0) of 0.3.
`CN1C(=O)CN=C(c2ccccc2C(F)(F)F)c2cc([N+](=O)[O-])ccc21` yielded a logD (pH 7.4) of 2.45.
`O=C(Nc1ccc(Cl)cc1)c1cccnc1`: the logP came to 2.53.
`CC(C)(C)OC(=O)N[C@@H](Cc1ccccc1)C(=O)N[C@@H](Cc1ccc(O)cc1)C(=O)O` (Boc-Phe-Tyr-OH) showed a logD (pH 1.0) of 2.79.
With `CCC(C)N(C(=O)SCc1ccccc1)C(C)CC` (stereo unspecified), the logP was 4.4.
The same measure, in the same setting: the same measure for `COCC(O)Cn1cc([N+](=O)[O-])nn1` (stereo unspecified): -0.36; for `CC(C)[C@H](NC(=O)[C@H](Cc1ccccc1)NC(=O)OC(C)(C)C)C(=O)O`: 2.88; for `CCOc1cccnc1`: 1.44.
